Structures are written as SMILES.

The values below come from PMC8954944 (Molecules, 2022).

The test system of assay [1] is c-myc G-quadruplex DNA FRET probe (FAM/TAMRA) (DNA, G4) TGGGGAGGGTGGGGAGGGTGGGGAAGG
The experiment in a line: FRET melting. The note with it: 100 mM KCl, 10 mM Na3AsO4; 10 mM Tris-HCl pH 7.4; 0.2 μM DNA; complex 0.15 or 0.30 μM, not given.

The subject of assay [2] is c-myc G-quadruplex DNA (DNA, G4) TGGGGAGGGTGGGGAGGGTGGGGAAGG
The experiment in a line: UV-vis titration. The note with it: 100 mM KCl.

Assay [3] shares this test system. Kind of assay: fluorescent intercalator displacement. The note with it: 100 mM KCl, thiazole orange 1 μM displaced, DNA 0.5 μM.
In assay [4] the test system is human glioblastoma U87 cells. The experiment in a line: MTT assay, U87. The note with it: 72 h, 570 nm. Type of assay: cell-based.
The test system of assay [5] is human breast cancer MCF-7 cells. The experiment in a line: MTT assay, MCF-7. The assay is classed as cell-based. The note with it: 72 h, 570 nm.
Assay [6] deals with human liver carcinoma HepG2 cells. Kind of assay: MTT assay, HepG2. The assay is classed as cell-based. The note with it: 72 h, 570 nm. For orientation: Tetrazolium dyes change colour on reduction, which living cells bring about.
The test system of assay [7] is human lung cancer A549 cells. Kind of assay: MTT assay, A549. Type of assay: cell-based. The note with it: 72 h, 570 nm.
Assay [8] deals with human keratinocyte Hacat cells. The experiment in a line: Cytotoxic activity against Hacat cells. Type of assay: cell-based. The note with it: 72 h incubation. The procedure: The cytotoxic activity of the ligands and arene Ru(II)-modified compounds […] 1 . The cytotoxic activities of complexes against human keratinocyte […] 72 h incubation. Comp. L1 L2 3 6 […] 7. Multiple gene expression in glioblastoma multiforme Figure S20. Multiple gene expression in glioblastoma multiforme(Copyright © 2017 […], Boxi Kang. Zhang's Lab.). The darker the color, the higher the gene expression in glioblastoma multiforme. As shown in the heat map, c-myc gene is highly expressed in glioblastoma multiforme (GBM) compared with other G-quadruplex DNA (Tel, Bcl-2, c-kit, k-ras). 8. […]

The test system of the next assay is human normal liver cells. The experiment in a line: Toxicity to human normal liver cells. The note with it: read-out: IC50 human normal liver cells.
For another assay, the system named is c-myc G-quadruplex DNA. Kind of assay: UV–vis absorption titration with c-myc G-quadruplex DNA. Type of assay: binding. The note with it: 10 mM Tris-HCl buffer (pH 7.4), 100 mM KCl, [DNA]=100 μM. The method, then:
Electron spectroscopy is one of the most widely used techniques to evaluate the binding ability between metal complexes and DNA. UV–vis spectra titration experiments were conducted to further clarify the binding behavior of these complexes with c-myc G-quadruplex DNA.
The intramolecular c-myc G-quadruplex DNA structure was prepared by incubating Pu22 in a 10 mM Tris-HCl buffer (pH 7.4) containing 100 mM KCl, which was heated to 95 °C for 5 min, cooled to room temperature overnight, and stored at 4 °C for 24 h. The binding parameters of the arene Ru(II) complexes and c-myc G-quadruplex DNA were measured at room temperature using the UV–vis absorption spectra (Shimadzu UV-2550 spectrophotometer). […] The intrinsic binding constant (Kb) was calculated using the following:[DNA]/(εa − εf) = [DNA]/(εb − εf) + 1/[Kb(εb − εf)](2)
In the formula, εa, εf, and εb are the apparent coefficients, and the free and fully bound forms of the metal complex extinction coefficients, respectively. […] Kb is the ratio of the slope to the intercept.

The mark [9] stands for this setting: 10 mM Tris-HCl pH 7.4, room temperature, 20 μM complex.
[10] abbreviates: 10 mM Tris-HCl pH 7.4, room temperature.

By ΔTm is commonly meant the change in melting temperature against a reference sample. With `Cc1ccc(C(C)C)cc1.Fc1ccc(-c2nc3c4cccnc4c4ncccc4c3[nH]2)c(F)c1.[Cl-].[Ru+2]`, in assay [1], the thermal shift (ΔTm) was 0.4 °C. In [2] (setting [9]), the Kb is ~ 14.6 × 10^6 M^-1. For the same compound, the DC50 in assay [3] (setting [10]) is 15.6 µM.

In the case of `Cc1ccc(C(C)C)cc1.Fc1cccc(-c2nc3c4cccnc4c4ncccc4c3[nH]2)c1F.[Cl-].[Ru+2]`, the ΔTm in assay [1] stood at 5.07 °C. In addition, in assay [2] (setting [9]), the Kb was ~ 134 × 10^6 M^-1. Besides, the DC50 in assay [3] (setting [10]) came to 10.26 µM.

As for `Cc1ccccc1.Fc1ccc(-c2nc3c4cccnc4c4ncccc4c3[nH]2)c(F)c1.[Cl-].[Ru+2]`, the thermal shift (ΔTm) in assay [1] is 6.03 °C. The Kb in [2] is given as ~ 41.1 × 10^6 M^-1. Further, the DC50 in assay [3] (setting [10]) is 10.8 µM.

Take `Cc1ccccc1.Fc1cccc(-c2nc3c4cccnc4c4ncccc4c3[nH]2)c1F.[Cl-].[Ru+2]`: the thermal shift (ΔTm) in [1] stood at 15.05 °C. Further, the Kb in [2] was ~ 110 × 10^6 M^-1. Also, the DC50 in [3] (setting [10]) came out at 9.93 µM.

Turning to `Fc1ccc(-c2nc3c4cccnc4c4ncccc4c3[nH]2)c(F)c1`, the binding entry in [2] (10 mM Tris-HCl pH 7.4, DNA 100 μM, no significant absorption change) is recorded as “weak”.

Turning to `Fc1ccc(-c2nc3c4cccnc4c4ncccc4c3[nH]2)c(F)c1.[Cl-].[Ru+2].c1ccccc1`, in assay [1], the ΔTm amounted to 7.23 °C. Moreover, in assay [2] (setting [9]), the Kb was ~ 48.3 × 10^6 M^-1. Moreover, the DC50 in assay [3] (10 mM Tris-HCl pH 7.4, text b19 prints 7.8) worked out at 7.6 µM.

`Fc1cccc(-c2nc3c4cccnc4c4ncccc4c3[nH]2)c1F.[Cl-].[Ru+2].c1ccccc1`: in [1], the ΔTm turned out to be 13.09 °C. Further, the Kb in assay [2] (setting [9]) was ~ 67.5 × 10^6 M^-1. Besides, in assay [3] (setting [10]), the DC50 stood at 6.6 µM.

What is called IC50 is the midpoint of a concentration-inhibition curve. Turning to `N.N.[Cl][Pt][Cl]` [Cisplatin, reference compound], the IC50 in assay [4] is 32.6 ± 0.85 µM; in assay [5] it was 15.3 ± 0.18 µM; in [6], 9.9 ± 0.06 µM; in assay [7] it was 17.3 ± 0.26 µM.

As for `Fc1cccc(-c2nc3c4cccnc4c4ncccc4c3[nH]2)c1F` [L1, 2-(2,3-Di-fluorophenyl) Imidazole [4,5f][1,10]-Phenanthroline], the 50% inhibitory concentration (IC50) in [4] is 14.3 ± 0.47 µM; in assay [5], 4.25 ± 0.18 µM; in assay [8], 1.85 ± 0.03 µM; in [6], 0.29 ± 0.01 µM; in the assay with human normal liver cells, 0.34 µM; in assay [7], 7.99 ± 0.05 µM.

Take `Fc1ccc(-c2nc3c4cccnc4c4ncccc4c3[nH]2)c(F)c1` [L2, 2-(2,4-Di-fluorophenyl) Imidazole[4,5f][1,10]-Phenanthroline]: the “UV absorption peak of the ligand after the addition of DNA” value in the assay on c-myc G-quadruplex DNA is “did not change significantly”. The IC50 was found to be 5.87 ± 0.27 µM in assay [4]; 1.48 ± 0.09 µM in assay [5]; 2.72 ± 0.06 µM in assay [8]; 0.12 ± 0.01 µM in assay [6]; 0.18 µM in the assay on human normal liver cells; 3.42 ± 0.13 µM in assay [7].
